{
  "source": "patent US20050037450A1",
  "about": "“Novel targets for lithium therapy” (Duke University, priority 2002, published 2005)",
  "key": {"BPntase": {"tested_on": "BPntase", "details": "cited from earlier work"}, "[1]": {"molecular_target": "T1, GST-PST (mouse phenol-preferring sulfotransferase fused to GST) (Mus musculus, UniProt P52840)", "T1 construct": "The PST open reading frame was subcloned into the BamHI and NotI sites of pGEX4T-1; made in house; host or cells: bacteria (pGEX4T-1)", "T1 sequence (P52840 whole entry, the tested form may be a part)": "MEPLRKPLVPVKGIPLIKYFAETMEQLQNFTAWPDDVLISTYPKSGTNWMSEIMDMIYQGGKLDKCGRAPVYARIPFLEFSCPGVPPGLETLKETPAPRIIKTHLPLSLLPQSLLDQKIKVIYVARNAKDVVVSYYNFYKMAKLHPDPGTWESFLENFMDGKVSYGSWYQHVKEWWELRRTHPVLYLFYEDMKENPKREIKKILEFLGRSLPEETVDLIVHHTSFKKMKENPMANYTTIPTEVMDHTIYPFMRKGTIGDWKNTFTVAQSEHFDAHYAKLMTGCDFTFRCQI", "assay": "Binding of radiolabeled PAP to GST-PST (Scatchard)", "details": "100 nM purified GST-PST; Scatchard plot", "description": "FIG. 8 is a graph showing binding of PAP to GST-PST. Binding of radiolabeled PAP to 100 nM purified GST-PST was assayed in the presence of various concentrations of unlabeled PAP. […] The data are linear and intersect the y-axis at [Sb]/[Sf]=2.8.\nMeasurement of intracellular PAP concentrations. A novel isotope binding competition assay was developed to measure intracellular concentrations of PAP. The concentration of PAP in lysates was determined by the binding of radiolabeled PAP to the enzyme phenol (aryl) sulfotransferase (PST), which uses PAP as a cofactor (Yang, 1996b). […] The open reading frame was amplified by PCR using the primers 5′ […] (SEQ ID NO: 15) and 5′ […] (SEQ ID NO: 16) where the underlined sequences correspond to sequence in the PST open reading frame. The PCR product was gel purified and ligated into the pCR2.1 vector. […] The PST open reading frame was subcloned into the BamHI and NotI sites of pGEX4T-1 to create a bacterial expression vector in which PST was expressed in frame downstream of GST (GST-PST). […]\nFor the assay of intracellular PAP concentrations, appropriate yeast strains were grown in CM/ura^− to mid-log phase (OD600=1.0). […] The amount of soluble protein in this extract was determined using a Bradford dye-binding assay (BioRad, Hercules, Calif., United States of America) with bovine serum albumin as a standard. […]"}, "adenylate cyclase": {"molecular_target": "adenylate cyclase", "details": "preparations of native adenylate cyclase-containing membranes; P-site inhibitor; read-out: IC50 for inhibition of adenylate cyclase; cited from earlier work"}, "Wild type yeast": {"tested_on": "Wild type yeast", "assay": "Lithium inhibition of yeast growth (OD600), wild type", "type": "cell-based, S. cerevisiae", "details": "CM/ura−/met−, 24 hr at 30° C.", "description": "FIG. 7 is a graph showing met3Δ and met14Δ strains are lithium resistant. Wild type, met3Δ, and met14Δ yeast were resuspended at 5×10^4/ml in CM/ura^− containing 2% dextrose and 1.25 μg/ml methionine. Growth at various concentrations of LiCl was measured after a 24 hr incubation at 30° C. The growth is plotted relative to growth in media lacking lithium.\nFIG. 10 is a graph showing methionine supplementation induces lithium resistance. Wild type yeast were inoculated at 5×10^4 cells per ml into synthetic media with or without methionine containing the noted concentration of LiCl. Growth was assayed by spectrophotometry following 48 hrs of growth at 30° C.\nWild type yeast were grown in CM/ura^− containing 2% galactose to mid-log phase. The cultures were washed and resuspended at 5×10^5 cells/ml in CM/ura^−/met^− containing the noted lithium and chlorate concentrations. Following growth for 24 hr at 30° C., the cultures were resuspended, and growth was measured by determining the absorbance at λ=600 nm.\nSince methionine effects transcriptional down regulation of the MET3 and MET14 gene products in wild type yeast, the relative lithium sensitivities of the met3Δ and met14Δ strains were assayed in growth media containing reduced methionine (1.25 μg/ml). The use of limited methionine allowed for the comparison of the relative sensitivity to lithium of yeast expressing (wild type) or lacking (met3Δ and met14Δ) PAPS synthetase activities.\nThe yeast system was used to determine if chlorate could be used to effect a relevant decrease in the accumulation of PAP in the presence of lithium. […] The decrease in PAP accumulation was physiologically relevant since chlorate produced a protective effect in the presence of lithium. […] When 25 mM NaClO3 is included in the culture medium, the growth inhibition is abated, with the IC50 increasing to approximately 80 mM LiCl (FIG. 11)"}, "[2]": {"tested_on": "intracellular PAP in wild type yeast", "assay": "Intracellular PAP concentration by GST-PST binding assay, wild type yeast", "type": "cell-based, S. cerevisiae", "description": "(§1) Yeast were grown in CM/ura^− containing 2% galactose to mid-log phase. The cultures were washed extensively and resuspended in the CM/ura^−/met^− media with the noted inclusions. PAP was measured using the ligand binding assay described in Experimental Procedures. Intracellular PAP concentrations were normalized to the amount of soluble protein extracted from the cultures.\nFor the assay of intracellular PAP concentrations, appropriate yeast strains were grown in CM/ura^− to mid-log phase (OD600=1.0). The cells were centrifuged and washed extensively in sterile water. The cells were resuspended in CM/ura^−/met^− containing methionine (20 μg/ml), lithium, or chlorate as appropriate. The cultures were incubated with shaking at 30° C. At various time points, 2 ml of culture was removed and centrifuged. The cells were washed with 1 ml of water. 250 μl was centrifuged and resuspended in 200 μl K-lysis buffer. 200 μl of glass beads were added, and the cells were disrupted by vigorous bead beating. The amount of soluble protein in this extract was determined using a Bradford dye-binding assay (BioRad, Hercules, Calif., United States of America) with bovine serum albumin as a standard. The remaining 750 μl of washed cells was spun down and resuspended in 250 μl of 2 N HClO4. This was incubated at 4° C. for 20 min, when 250 μl of 1.8 N KOH, 0.4 N KHCO3 were added to neutralize and precipitate the HClO4. The extract was centrifuged at 4° C. to remove the debris, and the supernatant was lyophilized using a rotary evaporator. The dried extracts were frozen at −80° C. for no more than one week prior to use. Extracts were reconstituted in 100 μL of 200 mM HEPES, pH 7.5 and again centrifuged to remove debris. 5′ [^32P] 3′, 5′ PAP was created as described (Spiegelberg, 1999). The GST-PST assay was performed by mixing 10 μL of standard PAP, treated as above, or 10 μL of sample diluted approximately 1:1000 in K-lysis buffer, with 10 μL of radiolabeled PAP (approximately 10,000 CPM). Eighty microliters of a reaction mix containing 100 mM HEPES, pH 7.0, 5 mM DTT, 0.2 mg/ml BSA, and 1 μg of GST-PST were added to start the binding reaction. The reactions were allowed to equilibrate for at least one hour at room temperature. Following incubation, 20 μl of a 50:50 slurry of glutathione sepharose in K-lysis buffer was added. The tubes were incubated with gentle mixing for 10 min at room temperature. The protein with bound PAP was pulled down by centrifugation for 2 min at room temperature. 80 μl of the supernatant, containing free PAP, was removed to a scintillation vial and 200 μl of K-lysis buffer was added to wash the resin. The tubes were centrifuged again and the 200 μl wash was transferred to the original scintillation vials. Radioactivity was determined by adding 5 ml of […] ECONO2™ scintillation fluid (Fisher Scientific, Hampton, N.H., United States of America) and counted in a liquid scintillation counter. The counts were converted to percent isotope bound, and a standard curve was prepared by plotting percent bound vs. the logarithm of the PAP concentration. […]\nThe GST-PST binding assay was used to determine relative intracellular PAP concentrations in yeast strains grown under various conditions. The PAP concentration determined in the binding assay was normalized to the total soluble protein in parallel extracts, and background was eliminated by reporting only the signal that was sensitive to in vitro degradation by purified recombinant Hal2p. […]"}, "[3]": {"tested_on": "intracellular PAP in met14Δ cells", "type": "cell-based, S. cerevisiae", "description": "as §1\n(§2) For the assay of intracellular PAP concentrations, appropriate yeast strains were grown in CM/ura^− to mid-log phase (OD600=1.0). The cells were centrifuged and washed extensively in sterile water. The cells were resuspended in CM/ura^−/met^− containing methionine (20 μg/ml), lithium, or chlorate as appropriate. The cultures were incubated with shaking at 30° C. At various time points, 2 ml of culture was removed and centrifuged. The cells were washed with 1 ml of water. 250 μl was centrifuged and resuspended in 200 μl K-lysis buffer. 200 μl of glass beads were added, and the cells were disrupted by vigorous bead beating. The amount of soluble protein in this extract was determined using a Bradford dye-binding assay (BioRad, Hercules, Calif., United States of America) with bovine serum albumin as a standard. The remaining 750 μl of washed cells was spun down and resuspended in 250 μl of 2 N HClO4. This was incubated at 4° C. for 20 min, when 250 μl of 1.8 N KOH, 0.4 N KHCO3 were added to neutralize and precipitate the HClO4. The extract was centrifuged at 4° C. to remove the debris, and the supernatant was lyophilized using a rotary evaporator. The dried extracts were frozen at −80° C. for no more than one week prior to use. Extracts were reconstituted in 100 μL of 200 mM HEPES, pH 7.5 and again centrifuged to remove debris. 5′ [^32P] 3′, 5′ PAP was created as described (Spiegelberg, 1999). The GST-PST assay was performed by mixing 10 μL of standard PAP, treated as above, or 10 μL of sample diluted approximately 1:1000 in K-lysis buffer, with 10 μL of radiolabeled PAP (approximately 10,000 CPM). Eighty microliters of a reaction mix containing 100 mM HEPES, pH 7.0, 5 mM DTT, 0.2 mg/ml BSA, and 1 μg of GST-PST were added to start the binding reaction. The reactions were allowed to equilibrate for at least one hour at room temperature. Following incubation, 20 μl of a 50:50 slurry of glutathione sepharose in K-lysis buffer was added. The tubes were incubated with gentle mixing for 10 min at room temperature. The protein with bound PAP was pulled down by centrifugation for 2 min at room temperature. 80 μl of the supernatant, containing free PAP, was removed to a scintillation vial and 200 μl of K-lysis buffer was added to wash the resin. The tubes were centrifuged again and the 200 μl wash was transferred to the original scintillation vials. Radioactivity was determined by adding 5 ml of […] ECONO2™ scintillation fluid (Fisher Scientific, Hampton, N.H., United States of America) and counted in a liquid scintillation counter. The counts were converted to percent isotope bound, and a standard curve was prepared by plotting percent bound vs. the logarithm of the PAP concentration. This standard curve was used to back-calculate the PAP concentration in the unknown samples.\n(§3) The GST-PST binding assay was used to determine relative intracellular PAP concentrations in yeast strains grown under various conditions. The PAP concentration determined in the binding assay was normalized to the total soluble protein in parallel extracts, and background was eliminated by reporting only the signal that was sensitive to in vitro degradation by purified recombinant Hal2p. The assay was characterized further by analyzing the intracellular PAP concentration of wild type yeast grown in the presence of lithium."}, "[4]": {"tested_on": "intracellular PAP in met3Δ cells", "type": "cell-based, S. cerevisiae", "description": "as §1, §2, §3"}, "cultured IMCD cells": {"tested_on": "cultured IMCD cells", "assay": "cAMP production during stimulation of cultured IMCD cells", "type": "cell-based, mouse", "details": "lithium present"}},
  "note": "Where “and” joins values, the source holds several entries; their conditions need not be identical. Equal entries are not always repeated.",
  "data": [
    {"smiles": "Nc1ncnc2c1ncn2[C@@H]1O[C@H](COP(=O)(O)OS(=O)(=O)O)[C@@H](OP(=O)(O)O)[C@H]1O", "note": "[3′-phosphoadenosine 5′-phosphosulfate]", "values": [
      {"measurement": "Vmax of BPntase substrate", "setting": "BPntase; removal of 3′-phosphate", "value": 40, "unit": "µmol/min/mg"},
      {"measurement": "Km", "setting": "BPntase; removal of 3′-phosphate, read-out: Km of BPntase substrate", "value": 0.5, "unit": "µM"}
    ]},
    {"smiles": "Nc1ncnc2c1ncn2[C@@H]1O[C@H](COP(=O)(O)O)[C@@H](OP(=O)(O)O)[C@H]1O", "note": "[PAP, 3′-phosphoadenosine 5′-phosphate]", "values": [
      {"measurement": "Kd", "setting": "[1]", "value": "~0.035 µM and 0.0357 µM"},
      {"measurement": "IC50", "setting": "adenylate cyclase", "value": "~50", "unit": "µM"}
    ]},
    {"smiles": "[O-][Cl+2]([O-])O", "note": "[chlorate]", "values": [
      {"measurement": "Effect of chlorate on sensitivity of yeast growth to lithium", "setting": "Wild type yeast", "value": "reduces sensitivity"},
      {"measurement": "Fold PAP accumulation with chlorate", "setting": "[2]; wild type, 100 mM lithium plus 25 mM NaClO3", "value": 30.8, "unit": "fold"},
      {"measurement": "Effect of chlorate on lithium-dependent PAP accumulation / production", "setting": "[2]; yeast, lithium present", "value": "inhibited production of PAP in vivo"},
      {"measurement": "Fold PAP accumulation with chlorate", "setting": "[3]; met14Δ expressing hPAPSS2, 100 mM lithium plus 25 mM NaClO3", "value": 22.1, "unit": "fold"},
      {"measurement": "Fold PAP accumulation with chlorate", "setting": "[4]; met3Δ expressing hPAPSS2, 100 mM lithium plus 25 mM NaClO3", "value": 27.0, "unit": "fold"},
      {"measurement": "Effect of chlorate on accumulation of cAMP", "setting": "cultured IMCD cells", "value": "partially restored"}
    ]},
    {"smiles": "O=P(O)(O)O[C@H]1[C@H](O)[C@@H](O)[C@H](OP(=O)(O)O)[C@@H](O)[C@H]1O", "note": "[inositol 1,4-bisphosphate]", "values": [
      {"measurement": "Ki", "setting": "BPntase; read-out: Ki, competitive inhibition of BPntase", "value": 15, "unit": "µM"}
    ]},
    {"smiles": "CSCC[C@H](N)C(=O)O", "note": "[methionine]", "values": [
      {"measurement": "Intracellular PAP concentration with methionine", "setting": "[2]; wild type, lithium present, methionine 20 μg/ml in media", "value": 2.3, "unit": "nmol/mg"},
      {"measurement": "Effect of methionine on PAP accumulation", "setting": "[3]; met14Δ expressing hPAPSS2 from galactose-inducible vector, lithium present", "value": "little effect"},
      {"measurement": "Effect of methionine on PAP accumulation", "setting": "[4]; met3Δ expressing hPAPSS2 from galactose-inducible vector, lithium present", "value": "little effect"}
    ]}
  ]
}
